The source of these data is BindingDB's records for doi:10.1016/j.bioorg.2015.02.005 (North-West University, 2015).

Values joined by “and” are separate entries in the source; they are usually repeats but may differ in a detail not shown here. Equal entries are not always repeated.

The target in one test is T1, Adenosine receptor A1 (Rattus norvegicus, UniProt P25099).
T1 sequence (P25099 whole entry): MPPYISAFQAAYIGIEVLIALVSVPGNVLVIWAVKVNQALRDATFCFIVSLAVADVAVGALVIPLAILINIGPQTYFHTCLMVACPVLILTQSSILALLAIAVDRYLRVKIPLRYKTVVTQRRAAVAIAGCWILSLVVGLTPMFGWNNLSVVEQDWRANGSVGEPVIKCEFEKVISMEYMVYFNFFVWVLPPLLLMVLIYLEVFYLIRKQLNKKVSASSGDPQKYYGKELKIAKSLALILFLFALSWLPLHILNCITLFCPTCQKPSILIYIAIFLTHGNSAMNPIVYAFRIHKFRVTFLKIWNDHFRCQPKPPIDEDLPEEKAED
Kind of test: Radioligand Binding Assays. The protocol: (§1) For the A2a receptor binding study, the incubation contained 10 mg of the original tissue weight of the striatal membranes, 4 nM [3H]NECA, 50 nM CPA, 10 mM MgCl2, 0.2 units/mL adenosine deaminase, the test compound and 1% DMSO. For the A1 receptor binding study, the incubations contained 5 mg of the original tissue weight of the whole brain membranes, 0.1 nM [3H]DPCPX, 0.2 units/mL adenosine deaminase, the test compound and 1% DMSO. The incubations were vortexed and incubated for 60 min at 25 °C in a shaking waterbath. Half an hour after incubation was started, the incubations were vortexed again. The incubations were terminated via filtration. The tubes were washed twice with 4 mL ice-cold Tris buffer and the filters were washed once more with 4mL ice-cold Tris buffer. The damp filters were place in scintillation vials and 4 mL of scintillation fluid was added. The vials were shaken and incubated for two hours before being counted.

For the next test, the target named is Adenosine receptor A2a (Rattus norvegicus, UniProt P30543). Kind of test: Radioligand Binding Assays. The protocol: as §1
The target of test [1] is T2, Amine oxidase [flavin-containing] B (Homo sapiens, UniProt P27338).
T2 sequence (P27338 whole entry): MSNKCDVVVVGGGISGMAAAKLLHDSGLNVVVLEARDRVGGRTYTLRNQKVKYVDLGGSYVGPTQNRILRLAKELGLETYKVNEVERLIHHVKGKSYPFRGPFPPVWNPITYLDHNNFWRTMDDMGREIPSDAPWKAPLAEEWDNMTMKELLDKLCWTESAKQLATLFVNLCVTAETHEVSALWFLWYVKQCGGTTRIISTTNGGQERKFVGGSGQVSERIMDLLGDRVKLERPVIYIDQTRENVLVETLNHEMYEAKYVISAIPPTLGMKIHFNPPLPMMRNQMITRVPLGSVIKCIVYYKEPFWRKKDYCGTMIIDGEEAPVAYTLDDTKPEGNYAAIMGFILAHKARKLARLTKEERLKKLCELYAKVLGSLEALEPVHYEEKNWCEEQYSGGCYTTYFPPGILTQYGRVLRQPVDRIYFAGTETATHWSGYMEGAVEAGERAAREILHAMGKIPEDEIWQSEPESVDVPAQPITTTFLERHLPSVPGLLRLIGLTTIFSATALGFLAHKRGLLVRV
In words: MAO Inhibition Assays. Conditions: pH 7.4. The protocol:
The enzymatic reactions were carried out at pH 7.4 (K2HPO4/KH2PO4 100 mM, made isotonic with KCl) to a final volume of 500 µL. The reactions contained the different inhibitor concentrations spanning at least 3 orders of magnitude and the MAO-A/B mixed substrate kynuramine (45 µM for MAO-A and 30 µM for MAO-B). DMSO, as co-solvent (4%) was added to each reaction. The enzyme reactions were initiated with the addition of MAO-A or MAO-B (0.0075 mg protein/mL) and incubated for 20 min at 37 °C in a waterbath. After termination with the additionof 400 µL NaOH (2 N) and 1000 µL water, the concentrations of the MAO generated 4-hydroxyquinoline were measured by fluorescence spectrophotometry (excitation = […]; emission = […]).

Sequence of Adenosine receptor A2a (P30543 whole entry): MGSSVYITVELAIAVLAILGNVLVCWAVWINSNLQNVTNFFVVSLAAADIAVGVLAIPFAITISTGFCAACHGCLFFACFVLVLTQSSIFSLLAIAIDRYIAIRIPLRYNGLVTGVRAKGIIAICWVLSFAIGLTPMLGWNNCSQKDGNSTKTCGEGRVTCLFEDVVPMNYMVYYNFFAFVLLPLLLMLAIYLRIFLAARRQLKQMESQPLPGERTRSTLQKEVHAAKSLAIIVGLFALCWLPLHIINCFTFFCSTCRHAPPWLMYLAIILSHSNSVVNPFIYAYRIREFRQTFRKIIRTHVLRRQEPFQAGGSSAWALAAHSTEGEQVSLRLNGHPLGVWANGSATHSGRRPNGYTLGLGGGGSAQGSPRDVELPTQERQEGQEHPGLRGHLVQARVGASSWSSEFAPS

Consider `O=C1NC(=O)c2cc(OCc3ccccc3)ccc21`, for which, on Adenosine receptor A1, the inhibition constant Ki is 4.67 µM. `O=C1NC(=O)c2cc(SCCc3ccccc3)ccc21`: the Ki was 1.88 µM and 0.649 µM on Adenosine receptor A1; 17 µM on Adenosine receptor A2a. Moreover, the IC50 in test [1] amounted to 3.9 µM. As to `COc1ccc(CSc2ccc3c(c2)C(=O)NC3=O)cc1`, the Ki on Adenosine receptor A1 was 0.369 µM and 1.73 µM. Regarding `O=C1NC(=O)c2cc(SCc3ccc(F)cc3)ccc21`, the Ki at Adenosine receptor A1 is 36.7 µM and 6.3 µM; at Adenosine receptor A2a it was 12.7 µM. As for `O=C1NC(=O)c2cc(SCc3ccc(Br)cc3)ccc21`, at Adenosine receptor A1, the Ki came to 0.676 µM. In the case of `O=C1NC(=O)c2cc(SCc3ccc(Cl)cc3)ccc21`, the IC50 in test [1] was determined as 0.46 µM. For `O=C1NC(=O)c2cc(SCc3ccccc3)ccc21`, the Ki is 0.595 µM and 0.548 µM at Adenosine receptor A1; 0.98 µM on Adenosine receptor A2a. For `O=C1Nc2ccc(OCc3ccccc3)cc2C1=O` [5-Benzyloxyisatin], affinity at Adenosine receptor A1 was put at a Ki of 9.79 µM. That is a single-digit micromolar value.
